# Data from patent US9926354B2, “Amyloid precursor protein (APP) based Ã#-secretase inhibitor peptides, and methods of use” (UNIVERSITY OF SOUTH FLORIDA, priority 2014, dated 2018).
# Assays:
# [1] = system: CHO cells over-expressing human wild-type APP (CHO/APPwt); assay: Aβ and sAPPα production in cultured media of CHO/APPwt cells by ELISA (24 hours); type: cell-based, Chinese hamster; details: 20 μg/mL
# Protocol: Cell Culture—Chinese hamster ovary (CHO) cells engineered to express wild-type human APP (CHO/APPwt cells) or Swedish mutant human APP (CHO/APPswe cells) were kindly provided by Dr. Stefanie Hahn and Dr. Sascha Weggen (University of Heinrich Heine, Dusseldorf, Germany). As described previously (Obregon et al., 2012), these cells were cultured in Dulbecco's modified Eagle's medium (DMEM) with 10% fetal bovine serum (FBS), 1 mM sodium pyruvate, and 100 units/mL of penicillin and streptomycin.
# To confirm the binding of APPsweBBP with BACE1, CHO/APPwt cells were plated in 8-well chambers (5×10^5/well), incubated with TAT-APPsweBBP-biotin or APPsweBBP-biotin at 20 μM for 30 minutes, fixed with 4% paraformaldehyde for 20 minutes, washed and permeabilized with 0.5% Triton X-100. Following application of blocking buffer, these cells were stained with mouse anti-BACE1 and rabbit anti-biotin antibodies overnight at 4° C. for immunocytochemistry analysis. […] The cultured media were collected for Aβ analysis by enzyme-linked immunosorbent assay (ELISA) and sAPPα analysis by ELISA and Western blot (WB). Cell lysates were also prepared for analysis of APP amyloidogenic processing by WB.
# ELISA—Mouse brains were homogenized in ice-cold lysis buffer for 30 seconds using a Minilys tissue homogenizer (Bertin Technologies, Montigny-le-Bretonneux, France) set at high speed, allowed to stand for 15 minutes at 4° C., and centrifuged at 15,000 rpm for 30 minutes. Soluble Aβ1-40/42 species and sAPPα were directly detected in cultured cell media or brain homogenates using the Aβ1-40/42 (Invitrogen) and sAPPα ELISA kits (IBL-America, Minneapolis, Minn., USA).
# To further examine the ability of the Swedish mutant APP BACE1 binding peptide/Tat fusion peptides to decrease Aβ production, CHO cells overexpressing either human wild-type APP (CHO/APPwt cells) or Swedish mutant APP (hereinafter referred to as “CHO/APPswe cells”) are treated with a variety of APP-based BACE1 inhibitor peptides, as shown in Table 1 and Table 2. Aβ production is determined using ELISA.
# BACE1 = BACE1 (Homo sapiens, UniProt P56817); assay: Binding to and cleavage by recombinant BACE1 (WB, IP); details: biotin-labeled peptide, recombinant BACE1, 4 hours
# Sequence of BACE1 (P56817 46-501): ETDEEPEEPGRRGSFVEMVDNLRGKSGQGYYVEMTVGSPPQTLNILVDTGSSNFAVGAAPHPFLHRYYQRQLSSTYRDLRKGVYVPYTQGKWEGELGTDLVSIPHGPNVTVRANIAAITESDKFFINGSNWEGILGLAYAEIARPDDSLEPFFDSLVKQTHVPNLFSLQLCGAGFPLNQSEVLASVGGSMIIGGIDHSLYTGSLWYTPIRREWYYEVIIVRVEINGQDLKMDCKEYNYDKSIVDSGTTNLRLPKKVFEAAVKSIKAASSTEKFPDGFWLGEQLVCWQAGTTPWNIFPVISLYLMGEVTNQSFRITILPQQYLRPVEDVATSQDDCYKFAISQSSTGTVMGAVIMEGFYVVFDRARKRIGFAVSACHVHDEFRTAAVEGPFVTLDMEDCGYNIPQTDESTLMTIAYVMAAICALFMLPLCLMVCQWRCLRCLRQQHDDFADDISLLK
# Protocol: Biotin-labeled TAT-APPsweBBP was incubated with or without recombinant BACE1 protein and examined by western blot (A). Full length TAT-APPsweBBP and β-cleaved TAT-APPsweBBP were clearly detected. Immunoprecipitation (IP) with anti-BACE1 antibody and subsequent WB with anti-biotin antibody (B) and IP with anti-biotin antibody and then WB with anti-BACE1 antibody (C) both reveal that TAT-APPsweBBP, but not TAT peptide, binds to BACE1. To further confirm TAT-APPswcBPP can bind to BACE1, human wild-type APP expressing CHO cells were incubated with biotin-labeled TAT-APPsweBBP or biotin-labeled APPsweBBP at 20 μM for 30 minutes, and then stained with anti-BACE1 or anti-biotin antibodies (D). […] In addition, these treated cells were further analyzed by IP with anti-biotin and subsequent WB with anti-BACE1 antibodies (E), with results showing that TAT-APPsweBBP strongly and specifically binds to BACE1.
# In order to confirm that APPsweBBP containing the β-cleavage site could bind to and be consequently proteolyzed by BACE1, 10 μg of biotin-labeled TAT-APPsweBBP was incubated with or without 10 μL of recombinant BACE1 protein (1.0 U/mL) in BACE1 reaction buffer for 4 hours at 37° C. and then subjected to Western blot (WB) analysis as described previously (Rezai-Zadeh et al., 2005; Obregon et al., 2012). […]
# 5XFAD mice = assay: β-amyloid deposits in 5XFAD mouse brains (4G8 immunohistochemistry, image analysis); type: in vivo; details: 8 weeks i.p. treatment
# Source text: Percentage of 4G8 immunoreactive areas in regions of interest (RSC, EC and H regions) was quantified by image analysis for each treatment group (B). Data are represented as mean±SD (n=10, 5 female/5 male).
# 5XFAD Mice—Transgenic AD mice [5XFAD; B6SJL-Tg(APPSwF1Lon,PSEN1*M146L*L286V) 6799Vas/Mmjax] at 2.5 months of age were obtained from the Jackson Laboratory (Bar Harbor, Me., USA) and housed and maintained in the Animal Facility of College of Medicine at University of South Florida. The mice at 3.5 months of age were treated with TAT-APPsweBBP, TAT peptide (100 nM/kg in 100 μl PBS) or PBS (100 μl) intraperitioneally (i.p.) daily for eight consecutive weeks. The mice were subjected to behavioral testing after 8 week-treatment and euthanized for immunohistochemical, ELISA and WB analysis after completing behavioral tests. All experiments involving mice were in compliance with the U.S. Department of Health and Human Services Guide for the Care and Use of Laboratory Animals and in accordance with the guidelines of the USF Institutional Animal Care and Use Committee.
# Immunohistochemistry—Fixed cell cultures and brain sections were stained with indicated antibodies and then treated with donkey anti-mouse IgG conjugated with Alexa Fluor 488 (1:200) and goat anti-rabbit IgG conjugated with Alexa Fluor 594 (1:200; Invitrogen, Carlsbad, Calif., USA). […]
sequence,measurement,setting,value
"YGRKKRRQRRR [TAT, reference compound]",Secreted Aβ40 (ng/mg; mean ± SD),[1],11.32 ± 0.45 ng/mg
same,Secreted Aβ42 (ng/mg; mean ± SD),[1],1.07 ± 0.057 ng/mg
same,Secreted sAPPα (ng/mg; mean ± SD),[1],4766.34 ± 198.34 ng/mg
same,binding to BACE1 protein (IP/WB),BACE1,not observed
same,"percentage of 4G8 immunoreactive areas (β-amyloid plaques) in RSC, EC and H regions",5XFAD mice,no significant difference
